Measured values from US10836706B2, “Bacterial efflux pump inhibitors” (RUTGERS, THE STATE UNIVERSITY OF NEW JERSEY, priority 2016, dated 2020).

What was measured:
[1] = system: Escherichia coli ATCC 25922; experiment: Test A: MIC-based assay for potentiation of antibiotics that are known efflux pump substrates; format: cell-based; details: antibiotic MIC (e.g., clarithromycin and levofloxacin) in presence vs absence of the EPI compound; EPI at 1.6 to 12.5 μg/mL in CAMH broth, 24 hours at 37° C.
Source text: (§1) The ability of a compound disclosed herein to inhibit a bacterial efflux pump can be determined using a method like Test A or Test B as described in Example 20 and as shown in Table 1. Test A. Minimum Inhibitory Concentration (MIC)-Based Assay for Potentiation of Antibiotics that are Known Efflux Pump Substrates: MIC-based assays were used to evaluate the impact of potential efflux pump inhibiting (EPI) compounds on the MICs of antibiotics (e.g., clarithromycin and levofloxacin) known to be substrates for Gram-negative bacterial efflux pumps. The assays were conducted in accordance with Clinical and Laboratory Standards Institute (CLSI) guidelines for broth microdilution, with the modification that assays were conducted in the presence and absence of the test EPI compounds. […] Log-phase Gram-negative bacteria were added to 96-well microtiter plates (at 5×10^5 colony forming units (CFU) per mL) containing two-fold serial dilutions of antibiotic in CAMH broth either in the absence or presence of the test EPI compounds. In all assays, each serial dilution of antibiotic was present in duplicate. The final volume in each well was 0.1 mL, and the microtiter plates were incubated aerobically for 24 hours at 37° C. […] The following Gram-negative bacterial strains were included in these assays: Escherichia coli ATCC 25922

[2] = system: Pseudomonas aeruginosa ATCC 27853; experiment: as above; format: cell-based; details: antibiotic MIC (e.g., clarithromycin and levofloxacin) in presence vs absence of the EPI compound; EPI at 1.6 to 12.5 g/mL in CAMH broth, 24 hours at 37° C.
Source text: as §1, with “Pseudomonas aeruginosa” for “Escherichia coli”, “27853.” for “25922”

Cl.Cl.Cl.NCCC[C@H](N)CNCc1cc(C(F)(F)F)cc(C(F)(F)F)c1 [Example 1, (S)—N^1-(3,5-bis(trifluoromethyl)benzyl)pentane-1,2,5-triaminium Chloride]
Enhanced Activity in E. coli [1]: ≥2x
Enhanced Activity in P. aeruginosa [2]: <2x

CC(C)(C)c1cc(CNC[C@@H](N)CCCN)cc(C(C)(C)C)c1.Cl.Cl.Cl [Example 2, (S)—N^1-(3,5-di-tert-butylbenzyl)pentane-1,2,5-triaminium Chloride]
Enhanced Activity in E. coli [1]: ≥8x
Enhanced Activity in P. aeruginosa [2]: <2x

Cl.Cl.Cl.NCCC[C@H](N)CNCCc1cc(C(F)(F)F)cc(C(F)(F)F)c1 [Example 3, (S)—N^1-(3,5-bis(trifluoromethyl)phenethyl)pentane-1,2,5-triaminium chloride]
Enhanced Activity in E. coli [1]: ≥4x
Enhanced Activity in P. aeruginosa [2]: ≥2x

CC(N)CC[C@H](N)CNCc1cc(C(F)(F)F)cc(C(F)(F)F)c1.Cl.Cl.Cl (stereo partly drawn) [Example 4, (2S)—N^1-(3,5-bis(trifluoromethyl)benzyl)hexane-1,2,5-triaminium Chloride]
Enhanced Activity in E. coli [1]: <2x
Enhanced Activity in P. aeruginosa [2]: <2x

CC(C)C(N)CC[C@H](N)CNCc1cc(-c2ccc(F)cc2)cc(-c2ccc(F)cc2)c1.Cl.Cl.Cl (stereo partly drawn) [Example 5, (2S)—N^1-((4,4″-difluoro-[1,1′:3′,1″-terphenyl]-5′-yl)methyl)-6-methylheptane-1,2,5-triaminium chloride]
Enhanced Activity in E. coli [1]: 32 x
Enhanced Activity in P. aeruginosa [2]: ≥2x

Cl.Cl.Cl.NCCC[C@H](N)CNCc1cc(-c2ccc(F)cc2)cc(-c2ccc(F)cc2)c1 [Example 6, (S)—N1-((4,4″-difluoro-[1,1′:3′,1″-terphenyl]-5′-yl)methyl)pentane-1,2,5-triaminium chloride]
Enhanced Activity in E. coli [1]: ≥512x
Enhanced Activity in P. aeruginosa [2]: ≥16x

Cl.Cl.Cl.NCCN(CCN)Cc1cc(-c2ccc(F)cc2)cc(-c2ccc(F)cc2)c1 [Example 7, N1-(2-ammonioethyl)-N1-((4,4″-difluoro-[1,1′:3′,1″-terphenyl]-5′-yl)methyl)ethane-1,2-diaminium chloride]
Enhanced Activity in E. coli [1]: ≥512x
Enhanced Activity in P. aeruginosa [2]: ≥16x

Cl.Cl.Cl.NCCN(CCN)Cc1cc(C(F)(F)F)cc(C(F)(F)F)c1 [Example 8, 2-ammonio-1-((2-ammonioethyl)(3,5-bis(trifluoromethyl)benzyl)-14-azanyl)ethan-1-ylium chloride]
Enhanced Activity in E. coli [1]: <2x
Enhanced Activity in P. aeruginosa [2]: <2x

CC(C)(CNC[C@@H](N)CCCN)c1cc(-c2ccc(F)cc2)cc(-c2ccc(F)cc2)c1.Cl.Cl.Cl [Example 9, (S)—N^1-(2-(4,4″-difluoro-[1,1′:3′,1″-terphenyl]-5′-yl)-2-methylpropyl)pentane-1,2,5-triaminium chloride]
Enhanced Activity in E. coli [1]: ≥128 x
Enhanced Activity in P. aeruginosa [2]: ≥2x

Cl.Cl.Cl.NCCC[C@H](N)CNCCc1cc(-c2ccc(F)cc2)cc(-c2ccc(F)cc2)c1 [Example 10, (S)—N1-(2-(4,4″-difluoro-[1,1′:3′,1″-terphenyl]-5′-yl)ethyl)pentane-1,2,5-triaminium chloride]
Enhanced Activity in E. coli [1]: ≥1024x
Enhanced Activity in P. aeruginosa [2]: ≥64x

Cl.Cl.NCCC[C@@H](N)COc1cc(-c2ccc(F)cc2)cc(-c2ccc(F)cc2)c1 [Example 11, (R)-5-((4,4″-difluoro-[1,1′:3′,1″-terphenyl]-5′-yl)oxy)pentane-1,4-diaminium chloride]
Enhanced Activity in E. coli [1]: ≥1024 x
Enhanced Activity in P. aeruginosa [2]: ≥16x

Cl.Cl.NC[C@H](N)CCc1cc(-c2ccc(F)cc2)cc(-c2ccc(F)cc2)c1 [Example 12, (R)-4-(4,4″-difluoro-[1,1′:3′,1″-terphenyl]-5′-yl)butane-1,2-diaminium chloride]
Enhanced Activity in E. coli [1]: ≥32x
Enhanced Activity in P. aeruginosa [2]: <2x

Cl.Cl.NCCC[C@H](N)COc1cc(-c2ccc(F)cc2)cc(-c2ccc(F)cc2)c1 [Example 13, (S)-5-((4,4″-difluoro-[1,1′:3′,1″-terphenyl]-5′-yl)oxy)pentane-1,4-diaminium chloride]
Enhanced Activity in E. coli [1]: 256x
Enhanced Activity in P. aeruginosa [2]: <2x

CC(C)C(N)CC[C@H](N)COc1cc(-c2ccc(F)cc2)cc(-c2ccc(F)cc2)c1.Cl.Cl (stereo partly drawn) [Example 14, (2S)-1-((4,4″-difluoro-[1,1′:3′,1″-terphenyl]-5′-yl)oxy)-6-methylheptane-2,5-diaminium]
Enhanced Activity in E. coli [1]: <2x
Enhanced Activity in P. aeruginosa [2]: <2x

NCCC[C@H](N)CNCc1cc(-c2ccccc2)cc(-c2ccccc2)c1 [Example 15, (S)—N1-([1,1′:3′,1″-terphenyl]-5′-ylmethyl)pentane-1,2,5-triaminium Chloride]
Enhanced Activity in E. coli [1]: ≥128x
Enhanced Activity in P. aeruginosa [2]: ≥16x

Cl.Cl.NCCC[C@H](N)COc1cc(-c2ccc(C(F)(F)F)cc2)cc(-c2ccc(C(F)(F)F)cc2)c1 [Example 16, (S)-5-((4,4″-bis(trifluoromethyl)-[1,1′:3′,1″-terphenyl]-5′-yl)oxy)pentane-1,4-diaminium chloride]
Enhanced Activity in E. coli [1]: <2x
Enhanced Activity in P. aeruginosa [2]: ≥2x

COc1ccc(-c2cc(OC[C@@H](N)CCCN)cc(-c3ccc(OC)cc3)c2)cc1.Cl.Cl [Example 17, (S)-5-((4,4″-dimethoxy-[1,1′:3′,1″-terphenyl]-5′-yl)oxy)pentane-1,4-diaminium chloride]
Enhanced Activity in E. coli [1]: ≥1024x
Enhanced Activity in P. aeruginosa [2]: ≥2x

Cl.Cl.NCCC[C@@H](N)COc1cc(-c2cccc(F)c2)cc(-c2cccc(F)c2)c1 [Example 18, (R)-5-((3,3″-difluoro-[1,1′:3′,1″-terphenyl]-5′-yl)oxy)pentane-1,4-diaminium chloride]
Enhanced Activity in E. coli [1]: ≥512x
Enhanced Activity in P. aeruginosa [2]: ≥1x

Cl.Cl.NCCC[C@@H](N)COc1cc(-c2ccc(F)c(F)c2)cc(-c2ccc(F)c(F)c2)c1 [Example 19, (R)-5-((3,3″,4,4″-tetrafluoro-[1,1′:3′,1″-terphenyl]-5′-yl)oxy)pentane-1,4-diaminium chloride]
Enhanced Activity in E. coli [1]: ≥2x
Enhanced Activity in P. aeruginosa [2]: ≥1x
